pIC50: −log10 of the molar value.
What was measured:
ABA-responsive genes [1] = details: higher concentrations; Park et al., 2009; cited from earlier work
ABA-responsive genes [2] = experiment: ATH1 microarray analysis of seedlings; assay type: in vivo, Arabidopsis; details: wild-type seedlings; 25 μM
Experimental: (§1) FIG. 9. LC66C6 induces numerous ABA-responsive genes. […] Ten-day old seedlings were treated with carrier solvent (DMSO) or either 25 μM ABA, pyrabactin or LC66C6 for 8 hours. Total RNA was then prepared labeled and hybridized to ATH1 microarrays. Data plotted are log 2 transformed average expression values for ˜13K probes that were detectable across all experiments. Data shown are averages determined from triplicate biological replicates. (C) and (D) show the expression of a reporter gene in different plant tissues after treatment with vehicle (DMSO), pyrabactin, LC66C6, or (+)-ABA.
Total RNA was isolated using RNAeasy Plant Mini Kit (Qiagen, USA) according to the manufacturer's instructions. cDNA synthesis, labeling and hybridization to the Arabidopsis ATH1 chips (Affymetrix, USA) were performed by the IIGB Core Instrumentation Facility of University of California at Riverside using Affymetrix protocols. Biological triplicate samples were hybridized for DMSO controls, ABA, pyrabactin and quinabactin treatments; compound were applied at 25 μM final concentration and RNA prepared from frozen tissue after 6 hours exposure to compounds or controls. Expression signals for probe sets were calculated and normalized by MASS Statistical Algorithm (Affymetrix, USA). Experimental filtering of array data was performed for the presence of signal in all experiments. […]

Arabidopsis seeds = details: pyr1 single mutant; Park et al. 2009; cited from earlier work
PYL5 = molecular target: T1, PYL5 (Arabidopsis thaliana, UniProt Q9FLB1); experiment: Receptor-mediated PP2C inhibition assay, receptor PYL5; assay type: biochemical
T1 construct: 6xHis (N); made in house; BL21[DE3]pLysS for the GST-PP2Cs
T1 sequence (Q9FLB1 1-203): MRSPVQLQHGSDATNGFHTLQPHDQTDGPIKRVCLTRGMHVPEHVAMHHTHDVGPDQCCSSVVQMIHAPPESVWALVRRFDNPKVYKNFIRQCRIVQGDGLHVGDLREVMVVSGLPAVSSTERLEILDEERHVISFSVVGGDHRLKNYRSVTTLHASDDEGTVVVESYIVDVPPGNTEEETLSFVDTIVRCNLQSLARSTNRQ
T1 sequence (Q9CAJ0 23-511 partner): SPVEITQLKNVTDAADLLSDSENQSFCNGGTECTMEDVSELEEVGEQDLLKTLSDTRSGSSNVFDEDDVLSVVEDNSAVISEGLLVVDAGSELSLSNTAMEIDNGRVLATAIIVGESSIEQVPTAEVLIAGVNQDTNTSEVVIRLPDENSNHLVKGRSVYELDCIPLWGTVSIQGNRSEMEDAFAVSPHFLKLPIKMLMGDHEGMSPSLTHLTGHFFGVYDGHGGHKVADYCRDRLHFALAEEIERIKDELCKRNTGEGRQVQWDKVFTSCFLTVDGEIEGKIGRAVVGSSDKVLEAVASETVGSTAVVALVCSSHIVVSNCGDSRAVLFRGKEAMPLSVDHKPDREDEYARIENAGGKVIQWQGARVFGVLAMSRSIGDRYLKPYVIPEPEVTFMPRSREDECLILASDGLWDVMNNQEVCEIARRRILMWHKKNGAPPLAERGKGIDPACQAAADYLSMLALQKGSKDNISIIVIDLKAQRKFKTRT
Experimental: HAB1 and PYL proteins were expressed and purified as described previously (Park S Y, et al. (2009) Abscisic Acid Inhibits Type 2C Protein Phosphatases via the PYR/PYL Family of START Proteins. Science 324(5930):1068-1071), with minor modifications. To obtain GST-HAB1, -ABI1 and -ABI2 fusion proteins, the HAB1 cDNA was cloned into pGex-2T whereas ABI1 and ABI2 cDNAs were cloned into the vector pGex-4T-1. Expression was conducted in BL21[DE3]pLysS host cells. Transformed cells were pre-cultured overnight, transferred to LB medium and cultured at 30° C. to culture A600 of ˜0.5. The culture was then cooled on ice and MnCl2 added to 4 mM and IPTG added to 0.3 mM. After 16 hours incubation at 15° C., cells were harvested and recombinant proteins were purified on glutathione agarose as described previously (Park S Y, et al. (2009). To obtain 6×His-PYL receptor fusion proteins, receptor cDNAs for all 13 ABA receptors were cloned into the vector pET28 and expressed and purified as described previously (Mosquna A, et al. (2011) Potent and selective activation of abscisic acid receptors in vivo by mutational stabilization of their agonist-bound conformation. PNAS 108(51):20838-20843); this yielded soluble and functional protein (assessed using receptor-mediated PP2C inhibition assays) for all receptors except PYL7, PYL11 and PYL12. […]

ABA-responsive genes [3] = experiment: Quantitative RT-PCR of ABA-responsive genes in Arabidopsis; assay type: in vivo
Experimental: as §1
Total RNA was isolated using Plant RNA purification reagent (Invitrogen, USA) according to the manufacturer's instructions. cDNA was synthesized from 1 μg of total RNA using the QantiTec reverse transcription kit (Qiagen, USA). Real-time PCR using Maxima® SYBR Green/Fluorescein qPCR Master Mix (Fermentas) was performed with the iQ5 real-time PCR detection system (Bio-Rad, Hercules, Calif.). The relative amounts of target mRNAs were determined using the relative standard curve method and were normalized by relative amount of internal control mRNA. Biological triplicate experiments were performed.

PP2C inhibition at saturation (PYL5; maximal (saturating) inhibition): ~40% | pIC50 (PYL5; read-out: IC50 (activation of PYL5)): 6.05
Compound: O=S(=O)(NCc1ccccn1)c1ccc(Br)c2ccccc12 [pyrabactin]
ABA-related gene expression in seedlings (ABA-responsive genes [1]): induce modest ABA-related gene expression | genome-wide gene expression pattern compared with ABA (ABA-responsive genes [2]): did not induce an expression pattern similar to that of ABA | germination of pyr1 mutant (Arabidopsis seeds): pyr1 mutant germinates | induction of MAPKKK18, RD29A, and RD29B mRNAs (ABA-responsive genes [3]; Col and Ler ecotypes and pyr1, pyl1, ply2, pyl3 and pyl4 single mutants): did not significantly induce expression of any of the genes assayed | expression of ABF3, GBF3, NCED3, and RD29A (ABA-responsive genes [3]; Col wild-type plants): did not induce significant expression of any genes analyzed | expression of RD29B and MAPKKK18 mRNA (ABA-responsive genes [3]; wild-type plants): did not induce gene expression

— patent US9345245B2, “Synthetic compounds for vegetative ABA responses” (THE REGENTS OF THE UNIVERSITY OF CALIFORNIA, priority 2012, dated 2016)
